In patent US20250154212A1, “METHOD OF DISRUPTING MEMORY AND LIPOPEPTIDE FOR USE IN SUCH METHOD” (The Research Foundation for The State University of New York, priority 2023, published 2025):

Assays:
[1] = tested on: KIBRA with conventional PKCs (PKCα, PKCβI, PKCβII, PKCγ); test: BiFC assay of KIBRA with conventional PKCs in HEK293T cells; format: cell-based, human; settings: 10 μM
Method: KIBRA-PKMζ BiFC was performed as previously described (28), using pVen1-FLAG-KIBRA and pVen2-HA-PKMζ, in which PKMζ was cloned between EcoR1 and BamH1 sites. The constructs pVen1 and pVen2 encode the N-terminus (amino acids 1-154) and C-terminus (amino acids 155-238) of the Venus protein, respectively, and the Venus fragments were on the N-terminal of the fusion proteins. pVen2-HA-PKMζ[PKCι/λ-P291Q;F297S] was generated by site-directed mutagenesis using forward-cctggagAagcAAatceggatcccccggtCcctgtccgte and reverse-gacggacaggGaccgggggatccggatTTgctTctccagg primers and the QuickChange II XL Site-Directed Mutagenesis Kit (Agilent Technologies), following manufacturer's instructions. Additional pVen2-HA-PKC isoforms and pVen2-HA-CaMKIIα in the pVen2-HA vector were generated by cloning the N-terminus of the coding sequence of each kinase (table S1) to obtain an in-frame fusion at the C-terminus of the pVen2-HA. Human versions of KIBRA and kinases were used, and all PCR amplified sequences and constructs were verified by DNA sequencing.
HEK293T cells were cultured in Dulbecco's Modified Eagle's Medium supplemented with 10% heat-inactivated fetal bovine serum, 100 U/ml penicillin, […] streptomycin, 2 mM glutamine, and 10 mM HEPES in a T75 tissue culture flask with canted neck and ventilated cap. […]

[2] = tested on: contextual fear/threat memory in PKMζ-null mice; test: Contextual fear/threat conditioning, infusion into dorsal hippocampus, PKMζ-null mice; format: in vivo, mouse; settings: 10 nmol in 0.5 μl per hemisphere in hippocampus, tested 24 h post-infusion
Method: (§1) Mice were 8-10 weeks old at the time of cannulation and 9-11 weeks at the beginning of behavioral experiments. Mice were housed with cage-mates in plastic cages and provided with food and water ad libitum. Mice were maintained on a 12 h light/dark cycle (lights on at 7:00 am) and behavioral experiments began at 9:00 am.
(§2) Mice were injected intraperitoneally (1 ml/100 g body weight) with an anesthetic cocktail containing ketamine (10 mg/ml) and xylazine (2 mg/ml). Mice were provided with analgesic treatment prior to surgery (carprofen; 5 mg/ml). Guide cannulae (Plastics One, Roanoke, VA) were implanted bilaterally in the dorsal hippocampus (from bregma: AP-2.1 mm; L+/−1.8 mm; DV-1.2 mm) and secured to the skull with three jeweler's screws and dental cement. Antisedan (0.66 ml/100 g body weight of 0.5 mg drug/ml solution) was given via i.p. injection after surgery to reverse the anesthesia.
(§3) For 7 days following surgery, mice were handled by freely exploring the experimenter's palm for 2-5 min. Mice were trained and tested in the same conditioning box (Coulbourn Habitest, Coulboum Instruments), which consisted of a grid floor and blank walls. […] Freezing behavior (cessation of all movement except breathing) during the 4 min session was recorded by an experimenter blind to the conditions. […]

[3] = tested on: contextual fear/threat memory; test: Contextual fear/threat conditioning, infusion into dorsal hippocampus, wild-type mice; format: in vivo, mouse; settings: 10 nmol in 0.5 μl per hemisphere in hippocampus, tested 24 h post-infusion
Method: as §1, §2, §3

O=S(=O)(O)c1cc(O)c2c(S(=O)(=O)O)cc(S(=O)(=O)O)cc2c1 [ζ-stat, 1-naphthol-3,6,8-trisulphonic acid]
has no effect: effect on BiFC of KIBRA with conventional PKCs [1] | contextual fear/threat memory (% time freezing) [2] | contextual fear/threat memory (% time freezing) [3]
